Kd data for 76 molecules are collected here from patent US20050192314A1, “Urea derivatives as C-kit modulators” (Ambit Biosciences Corporation, priority 2003, published 2005).

The assay concerns the target T1, KIT(DKIN) (Homo sapiens, UniProt P10721).
T1 construct: KIT(DKIN); made in house
As to the kind of experiment: Binding constant (Kd) measurement, phage-displayed kinase competition binding assay: KIT(DKIN). The source says:
The term “ND” represents non-determined values.

Bounds are passed on as bounds.

T1 sequence (P10721 589-937 limits assumed): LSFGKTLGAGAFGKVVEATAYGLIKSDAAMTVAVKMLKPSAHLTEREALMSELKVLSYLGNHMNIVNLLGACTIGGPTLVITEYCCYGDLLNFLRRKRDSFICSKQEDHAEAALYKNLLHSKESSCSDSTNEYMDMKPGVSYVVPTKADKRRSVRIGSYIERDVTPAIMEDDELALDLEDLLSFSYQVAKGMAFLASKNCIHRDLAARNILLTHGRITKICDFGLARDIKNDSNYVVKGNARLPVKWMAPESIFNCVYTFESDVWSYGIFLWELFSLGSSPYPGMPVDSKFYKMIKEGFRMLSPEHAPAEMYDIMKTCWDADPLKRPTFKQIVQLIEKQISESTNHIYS

By Kd is commonly meant the concentration at which binding is half-saturated. The low end stands for higher affinity, the high end for lower affinity. `CC(C)(C)c1cc(NC(=O)Nc2ccc(NC(=O)c3cnc4cc(C(F)(F)F)ccc4c3O)cc2)no1` [Compound N146] showed a Kd of 1 to 10 µM.

As for `CC(C)(C)c1cc(NC(=O)Nc2ccc(NC(=O)c3cnccn3)cc2)no1` [Compound N136], the Kd is less than 0.1 µM. Under `CC(C)(C)c1cc(NC(=O)Nc2ccc(NC(=O)c3ccccc3Cl)cc2)no1` [Compound N23] stands less than 0.1 µM; under `CC(C)(C)c1cc(NC(=O)Nc2ccc(NC(=O)c3cccc4cccnc34)cc2)no1` [Compound N115], less than 0.1 µM; under `CC(C)(C)c1cc(NC(=O)Nc2ccc(OCc3ccccc3)cc2)no1` [Compound G31], less than 0.1 µM. Under `CC(C)(C)OC(=O)Nc1ccc(NC(=O)Nc2cc(C(C)(C)C)on2)cc1` [Compound N101] stands 0.1 to 1 µM. In turn, `Cc1ccc(COc2ccc(NC(=O)Nc3cc(C(C)(C)C)on3)cc2)cc1` [Compound G15] yielded a Kd of 0.1 to 1 µM. Under `Cc1cccnc1-c1noc(-c2ccc(NC(=O)Nc3cc(C(C)(C)C)on3)cc2)n1` [Compound P4] stands 0.1 to 1 µM; under `CC(C)(C)c1cc(NC(=O)Nc2ccc(NC(=O)c3cccc4c3OCCO4)cc2)no1` [Compound N111], 1 to 10 µM. As for `CC(C)(C)c1cc(NC(=O)Nc2ccc(OCc3ccc(F)cc3Cl)cc2)no1` [Compound G18], the figure is 0.1 to 1 µM; as for `CC(C)(C)c1cc(NC(=O)Nc2ccc(NC(=O)c3ncccc3C(N)=O)cc2)no1` [Compound N6], 1 to 10 µM; as for `CC(C)(C)c1cc(NC(=O)Nc2ccc(NC(=O)c3cc(Cl)cc(Cl)c3)cc2)no1` [Compound N29], 0.1 to 1 µM. Under `Cc1sc(NC(=O)Nc2ccc(Cl)cc2)c(C(N)=O)c1C` [Compound Z58] stands 0.1 to 1 µM; under `Cc1ccc(-c2cc(C(=O)Nc3ccc(NC(=O)Nc4cc(C(C)(C)C)on4)cc3)c(C)o2)cc1` [Compound N120], 1 to 10 µM; under `CC(C)(C)c1cc(NC(=O)Nc2ccc(OCc3c(F)cccc3F)cc2)no1` [Compound G21], less than 0.1 µM. `CC(C)(C)c1cc(NC(=O)Nc2ccc(OCC(O)CO)cc2)no1` (stereo not shown) [Compound G28] came in with a dissociation constant Kd of 0.1 to 1 µM. Under `CC(C)(C)c1cc(NC(=O)Nc2ccc(OCc3ccccc3)cc2)on1` [Compound G30] stands 0.1 to 1 µM; under `CC(C)(C)c1cc(NC(=O)Nc2ccc(NS(=O)(=O)c3ccccc3)cc2)no1` [Compound V1], 1 to 10 µM. Under `CC(C)(C)c1cc(NC(=O)Nc2ccc(CCc3ccc(N)cc3)cc2)no1` [Compound A3] stands less than 0.1 µM; under `CC(C)(C)c1cc(NC(=O)Nc2ccc(C(=O)NCc3ccc4c(c3)OCO4)cc2)no1` [Compound N97], 0.1 to 1 µM. Under `CC(C)(C)c1cc(NC(=O)Nc2ccc(OCc3ccc(C(F)(F)F)cc3)cc2)no1` [Compound G6] stands 0.1 to 1 µM; under `CC(C)(C)c1cc(NC(=O)Nc2ccc(OCc3ccc(C(=O)c4ccccc4)cc3)cc2)no1` [Compound G9], 0.1 to 1 µM; under `CC(C)(C)c1cc(NC(=O)Nc2ccc(NC(=O)c3ccc4ncccc4c3)cc2)no1` [Compound N151], 0.1 to 1 µM.

For `CC(C)(C)c1cc(NC(=O)Nc2ccc(NC(=O)c3cnc(Cl)c(Cl)c3)cc2)no1` [Compound N123], the Kd is 1 to 10 µM. Under `CC(C)(C)c1cc(NC(=O)Nc2ccc(NC(=O)c3csnn3)cc2)no1` [Compound N14] stands 0.1 to 1 µM; under `CC(C)(C)c1cc(NC(=O)Nc2ccc(NC(=O)c3ncc[nH]3)cc2)no1` [Compound N13], less than 0.1 µM; under `CC(C)(C)c1cc(NC(=O)Nc2ccc(C(N)=O)cc2)no1` [Compound N86], 0.1 to 1 µM. As for `CC(C)(C)c1cc(NC(=O)Nc2ccc(OCCN3CCCCC3)cc2)no1` [Compound G50], the figure is greater than 10 µM; as for `CC(C)(C)c1cc(NC(=O)Nc2ccccc2)no1` [Compound A2], 0.1 to 1 µM; as for `COC(=O)c1ccc(C(=O)Nc2ccc(NC(=O)Nc3cc(C(C)(C)C)on3)cc2)nc1` [Compound N12], 0.1 to 1 µM. In turn, `CC(C)(C)c1cc(NC(=O)Nc2ccc(F)cc2)no1` [Compound A47] came in with a Kd of 1 to 10 µM.

`CC(C)(C)c1cc(NC(=O)Nc2ccc(NC(=O)c3ccc(Cl)cc3Cl)cc2)no1` [Compound N130] returned a Kd of 1 to 10 µM. Under `CC(C)(C)c1cc(NC(=O)Nc2ccc(C(=O)Nc3ccc(Cl)cc3)cc2)no1` [Compound N156] stands 1 to 10 µM.

Take `CC1CN(CCOc2ccc(NC(=O)Nc3cc(C(C)(C)C)on3)cc2)CCN1` (stereo not shown) [Compound G46]: the Kd was greater than 10 µM. With `CC(C)(C)c1cc(NC(=O)Nc2ccc(NC(=O)c3cccnc3)cc2)no1` [Compound N1], the Kd fell in the range of 0.1 to 1 µM. As for `Cc1ccc(C(=O)Nc2ccc(NC(=O)Nc3cc(C(C)(C)C)on3)cc2)cn1` [Compound N142], the figure is 0.1 to 1 µM; as for `C/C=C/C(=O)Nc1ccc(NC(=O)Nc2cc(C(C)(C)C)on2)cc1` [Compound N93], 1 to 10 µM. As for `CC(C)(C)c1cc(NC(=O)Nc2ccc(NC(=O)c3cnc4ccccc4n3)cc2)no1` [Compound N149], the figure is 1 to 10 µM. As for `CSc1ccc(NC(=O)Nc2cc(C(C)(C)C)no2)cc1` [Compound A39], the figure is 0.1 to 1 µM; as for `O=C(Nc1ccccc1)Nc1ccc(-n2cnc(Cl)c2Cl)cc1` [Compound Z65], 1 to 10 µM; as for `CC(C)(C)c1cc(NC(=O)Nc2ccc(Cl)cc2)no1` [Compound A27], 0.1 to 1 µM. Molecule `C=CCOc1ccc(NC(=O)Nc2cc(C(C)(C)C)no2)cc1` [Compound G32] registered a Kd of less than 0.1 µM. Under `Cn1nc(C2CC2)cc1NC(=O)Nc1ccc(OCc2ccccc2)cc1` [Compound H7] stands greater than 10 µM; under `COc1cccc(-c2ccc(C(=O)Nc3ccc(NC(=O)Nc4cc(C(C)(C)C)on4)cc3)o2)c1` [Compound N105], 0.1 to 1 µM; under `CCOc1ccc(NC(=O)Nc2cc(C(C)(C)C)on2)cc1` [Compound G20], less than 0.1 µM. Under `COc1ccc(-c2noc(-c3ccc(NC(=O)Nc4cc(C(C)(C)C)on4)cc3)n2)c2ccccc12` [Compound P3] stands 1 to 10 µM; under `CC(C)(C)c1cc(NC(=O)Nc2ccc(NC(=O)c3ccccc3)cc2)no1` [Compound N34], 0.1 to 1 µM; under `CC(C)(C)c1cc(NC(=O)Nc2ccc(OCC3CCC3)cc2)no1` [Compound G39], less than 0.1 µM.

Consider `CC(C)(C)c1cc(NC(=O)Nc2ccc(C(=O)Nc3ccccc3)cc2)no1` [Compound N90], for which the Kd lay in the range of 0.1 to 1 µM.

`CC(C)(C)c1cc(NC(=O)Nc2ccc(C(=O)Nc3cccc(C(F)(F)F)c3)cc2)no1` [Compound N154]: the Kd lay within 1 to 10 µM.

The molecule `CCOC(=O)CCc1c(C)[nH]c(C(=O)Nc2ccc(NC(=O)Nc3cc(C(C)(C)C)on3)cc2)c1C` [Compound N83] came in with a Kd of 0.1 to 1 µM. As for `CC(C)(C)c1cc(NC(=O)Nc2ccc(NC(=O)c3c(Cl)cccc3Cl)cc2)no1` [Compound N94], the figure is 0.1 to 1 µM; as for `COc1cc(C(=O)Nc2ccc(NC(=O)Nc3cc(C(C)(C)C)on3)cc2)nc2ccccc12` [Compound N137], 0.1 to 1 µM; as for `CSc1ccc(NC(=O)Nc2cc(C(C)(C)C)on2)cc1` [Compound A37], 0.1 to 1 µM.

Consider `CC(C)(C)c1cc(NC(=O)Nc2ccc(OCCN3CCNCC3)cc2)no1` [Compound G52], for which the Kd was greater than 10 µM. As for `Cc1noc(-c2ccc(NC(=O)Nc3cc(C(C)(C)C)on3)cc2)n1` [Compound P9], the figure is less than 0.1 µM. Under `Cc1nc(C(=O)Nc2ccc(NC(=O)Nc3cc(C(C)(C)C)on3)cc2)nn1-c1cc(Cl)cc(Cl)c1` [Compound N15] stands greater than 10 µM; under `CC(C)(C)c1cc(NC(=O)Nc2ccc(OCc3ccc(Cl)cc3)cc2)no1` [Compound G34], less than 0.1 µM. As for `CC(C)(C)c1cc(NC(=O)Nc2ccc(OCCc3ccccc3F)cc2)no1` [Compound G25], the figure is 0.1 to 1 µM; as for `CC(C)(C)c1cc(NC(=O)Nc2ccc(NC(=O)c3cc([N+](=O)[O-])ccn3)cc2)no1` [Compound N7], less than 0.1 µM; as for `Cn1nc(-c2ccccc2)c(C(=O)Cc2ccc(NC(=O)Nc3cc(C(C)(C)C)on3)cc2)c1Cl` [Compound N11], greater than 10 µM.

The molecule `COc1ccc(N(C)C(=O)Nc2cc(C(C)(C)C)on2)cc1` [Compound J10] came in with a Kd of 0.1 to 1 µM. Under `CC(C)(C)c1cc(NC(=O)Nc2ccc(-c3nc(-c4cccc5ccccc45)no3)cc2)no1` [Compound P5] stands 1 to 10 µM. Under `CC(C)(C)c1cc(NC(=O)Nc2ccc(NC(=O)c3csc(-c4ccc(Cl)cc4)n3)cc2)no1` [Compound N124] stands 0.1 to 1 µM; under `CC(C)(C)c1cc(NC(=O)Nc2ccc(NC(=O)c3c4ccccc4nc4ccccc34)cc2)no1` [Compound N148], 1 to 10 µM; under `CC(C)(C)c1cc(NC(=O)Nc2ccc(NC(=O)c3cccc(O)n3)cc2)no1` [Compound N131], less than 0.1 µM. The molecule `CC(C)(C)c1cc(NC(=O)Nc2ccc(OCCN3CCOCC3)cc2)no1` [Compound G40] registered a Kd of 1 to 10 µM. Turning to `CC(C)(C)c1cc(NC(=O)Nc2ccc(OCc3ccccc3Cl)cc2)no1` [Compound G10], the Kd was less than 0.1 µM. As for `Cc1cc(C)n(C(=O)Nc2ccc(Cl)cc2)n1` [Compound Z52], the figure is greater than 10 µM; as for `CC(C)(C)c1cc(NC(=O)Nc2ccc(Cl)cc2)on1` [Compound A32], 0.1 to 1 µM; as for `CC(C)(C)c1cc(NC(=O)Nc2ccc(NC(=O)c3c(F)cccc3C(F)(F)F)cc2)no1` [Compound N95], 1 to 10 µM. On to `CC(C)(C)c1cc(NC(=O)Nc2ccc(OCc3ccc(-c4ccccc4)cc3)cc2)no1` [Compound G56], for which the Kd fell in the range of 0.1 to 1 µM. Consider `CC(C)(C)c1cc(NC(=O)Nc2ccc(OC/C=C/c3ccccc3Cl)cc2)no1` [Compound G26], for which the Kd is 0.1 to 1 µM. Under `CC(C)(C)c1cc(NC(=O)Nc2ccc(N)cc2)no1` [Compound C1, 1-(5-tert-butylisoxazol-3-yl)-3-(4-aminophenyl)urea] stands 1 to 10 µM; under `Cc1c(Cl)cccc1NC(=O)Nc1cc(C(C)(C)C)on1` [Compound A5], 1 to 10 µM. Under `Cc1nccn1CCOc1ccc(NC(=O)Nc2cc(C(C)(C)C)on2)cc1` [Compound G51] stands 0.1 to 1 µM.
